Measurements as given in patent US9695155B2, “Herbicidal substituted pyrimidinyloxy benzene compounds” (E. I. DU PONT DE NEMOURS AND COMPANY, priority 2013, dated 2017).

Tests used:
[1] = system: sedge, umbrella; assay: Test B flooded paddy test; type: in vivo, Cyperus difformis; settings: Flood, 250 g ai/ha; 0 to 100 scale where 0 is no effect and 100 is complete control
Summary of the method: (§1)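 Plants were grown to the 2-leaf stage, then pots were flooded to 3 cm above the soil and compounds were applied directly into the paddy water. That depth was held throughout, and after 13 to 15 days in the greenhouse injury was rated visually against controls on a 0–100 scale (0 no effect, 100 complete control).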

[2] = system: Heteranthera limosa; assay: Test B flooded paddy test; type: in vivo; settings: Flood, 250 g ai/ha; 0 to 100 scale where 0 is no effect and 100 is complete control
Summary of the method: as §1

[3] = system: barnyardgrass; assay: Test A postemergence; type: in vivo, Echinochloa crus-galli; settings: for Plant response rating, Barnyardgrass: 0 to 100 scale, 0 no effect, 100 complete control
Summary of the method: (§2)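 Injury scores run from 0, no effect, to 100, complete control, judged by eye against untreated plants roughly 10 days after treatment. Chemicals carried a surfactant in a non-phytotoxic solvent and went onto loam–sand soil preemergence or onto one- to two-leaf seedlings postemergence.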

[4] = system: giant foxtail; assay: Test A postemergence; type: in vivo, Setaria faberii; settings: for Plant response rating, Foxtail, Giant: 0 to 100 scale, 0 no effect, 100 complete control
Summary of the method: as §2

[5] = system: Italian ryegrass; assay: Test A preemergence; type: in vivo, Lolium multiflorum; settings: for Plant response rating, Ryegrass, Italian: 0 to 100 scale where 0 is no effect and 100 is complete control
Summary of the method: as §2

[6] = system: kochia; assay: Test A preemergence; type: in vivo, Kochia scoparia; settings: for Plant response rating, Kochia: 0 to 100 scale where 0 is no effect and 100 is complete control
Summary of the method: as §2

[7] = system: wheat; assay: Test A postemergence; type: in vivo, Triticum aestivum; settings: for Plant response rating, Wheat: 0 to 100 scale, 0 no effect, 100 complete control
Summary of the method: as §2

[8] = system: barnyardgrass; assay: Test B flooded paddy test; type: in vivo, Echinochloa crus-galli; settings: Flood, 250 g ai/ha; 0 to 100 scale where 0 is no effect and 100 is complete control
Summary of the method: as §1

[9] = system: corn; assay: Test A postemergence; type: in vivo, Zea mays; settings: for Plant response rating, Corn: 0 to 100 scale, 0 no effect, 100 complete control
Summary of the method: as §2

[10] = system: barnyardgrass; assay: Test A preemergence; type: in vivo, Echinochloa crus-galli; settings: for Plant response rating, Barnyardgrass: 0 to 100 scale where 0 is no effect and 100 is complete control
Summary of the method: as §2

[11] = system: blackgrass; assay: Test A postemergence; type: in vivo, Alopecurus myosuroides; settings: for Plant response rating, Blackgrass: 0 to 100 scale, 0 no effect, 100 complete control
Summary of the method: as §2

[12] = system: ragweed; assay: Test A preemergence; type: in vivo, Ambrosia elatior; settings: for Plant response rating, Ragweed: 0 to 100 scale where 0 is no effect and 100 is complete control
Summary of the method: as §2

[13] = system: pigweed; assay: Test A postemergence; type: in vivo, Amaranthus retroflexus; settings: for Plant response rating, Pigweed: 0 to 100 scale, 0 no effect, 100 complete control
Summary of the method: as §2

[14] = system: kochia; assay: Test A postemergence; type: in vivo, Kochia scoparia; settings: for Plant response rating, Kochia: 0 to 100 scale, 0 no effect, 100 complete control
Summary of the method: as §2

[15] = system: giant foxtail; assay: Test A preemergence; type: in vivo, Setaria faberii; settings: for Plant response rating, Foxtail, Giant: 0 to 100 scale where 0 is no effect and 100 is complete control
Summary of the method: as §2

[16] = system: rice; assay: Test B flooded paddy test; type: in vivo, Oryza sativa; settings: Flood, 250 g ai/ha; 0 to 100 scale where 0 is no effect and 100 is complete control
Summary of the method: as §1

[17] = system: ragweed; assay: Test A postemergence; type: in vivo, Ambrosia elatior; settings: for Plant response rating, Ragweed: 0 to 100 scale, 0 no effect, 100 complete control
Summary of the method: as §2

[18] = system: pigweed; assay: Test A preemergence; type: in vivo, Amaranthus retroflexus; settings: for Plant response rating, Pigweed: 0 to 100 scale where 0 is no effect and 100 is complete control
Summary of the method: as §2

[19] = system: Italian ryegrass; assay: Test A postemergence; type: in vivo, Lolium multiflorum; settings: for Plant response rating, Ryegrass, Italian: 0 to 100 scale, 0 no effect, 100 complete control
Summary of the method: as §2

[20] = system: galium; assay: Test A postemergence; type: in vivo, Galium aparine; settings: for Plant response rating, Galium: 0 to 100 scale, 0 no effect, 100 complete control
Summary of the method: as §2

[21] = 31 g ai/ha, visual, approximately 10 days
[22] = 125 g ai/ha, 0 to 100 scale where 0 is no effect and 100 is complete control

SMILES	Plant response rating, Sedge, Umbrella [1]	Plant response rating, Ducksalad [2]	Plant response rating, Barnyardgrass ([3]; 31 g ai/ha)	Plant response rating, Foxtail, Giant ([4]; 31 g ai/ha)	Plant response rating, Ryegrass, Italian [5, 21]	Plant response rating, Kochia [6, 21]	Plant response rating, Wheat ([7]; 31 g ai/ha)	Plant response rating, Barnyardgrass [8]	Plant response rating, Corn ([9]; 31 g ai/ha)	Plant response rating, Barnyardgrass [10, 21]	Plant response rating, Blackgrass ([11]; 31 g ai/ha)	Plant response rating, Ragweed [12, 21]	Plant response rating, Pigweed ([13]; 31 g ai/ha)	Plant response rating, Kochia ([14]; 31 g ai/ha)	Plant response rating, Foxtail, Giant [15, 21]	Plant response rating, Rice [16]	Plant response rating, Ragweed ([17]; 31 g ai/ha)	Plant response rating, Pigweed [18, 21]	Plant response rating, Ryegrass, Italian ([19]; 31 g ai/ha)	Plant response rating, Galium ([20]; 31 g ai/ha)	other results
N#Cc1cccc(Oc2ncc(Cl)cn2)c1-n1ccnc1 [Compound 261]	0	0	0	0	0	0	0	0	0	0	0	0	30	50	0	0	20	0	0	30	Plant response rating, Barnyardgrass ([3]; 125 g ai/ha): 0; Plant response rating, Foxtail, Giant ([4]; 125 g ai/ha): 10; Ryegrass, Italian plant response rating (0 to 100 scale) ([5]; 125 g ai/ha): 0; Kochia plant response rating (0 to 100 scale) ([6]; 125 g ai/ha): 0; Plant response rating, Wheat ([7]; 125 g ai/ha): 0; Plant response rating, Corn ([9]; 125 g ai/ha): 0; Barnyardgrass plant response rating (0 to 100 scale, 0 is no effect, 100 is complete control) ([10]; 125 g ai/ha): 0; Plant response rating, Blackgrass ([11]; 125 g ai/ha): 0; Ragweed plant response rating (0 to 100 scale) ([12]; 125 g ai/ha): 0; Plant response rating, Pigweed ([13]; 125 g ai/ha): 60; Plant response rating, Kochia ([14]; 125 g ai/ha): 70; Foxtail, Giant plant response rating (0 to 100 scale) ([15]; 125 g ai/ha): 0; Plant response rating, Ragweed ([17]; 125 g ai/ha): 30; Pigweed plant response rating (0 to 100 scale) ([18]; 125 g ai/ha): 0; Plant response rating, Ryegrass, Italian ([19]; 125 g ai/ha): 0; Plant response rating, Galium ([20]; 125 g ai/ha): 50
CC(C)Oc1cnn(-c2c(C#N)cccc2Oc2ncc(F)cn2)c1 [Compound 158]	0	50	20	20	30	50	0	0	0	10	50	40	40	60	60	40	60	50	20	60	Barnyardgrass plant response rating [3, 22]: 80; Foxtail, Giant plant response rating [4, 22]: 70; Plant response rating, Ryegrass, Italian ([5]; 125 g ai/ha): 50; Plant response rating, Kochia ([6]; 125 g ai/ha): 70; Wheat plant response rating [7, 22]: 0; Corn plant response rating [9, 22]: 30; Plant response rating, Barnyardgrass ([10]; 125 g ai/ha): 70; Blackgrass plant response rating [11, 22]: 60; Plant response rating, Ragweed ([12]; 125 g ai/ha): 80; Pigweed plant response rating [13, 22]: 50; Kochia plant response rating [14, 22]: 80; Plant response rating, Foxtail, Giant ([15]; 125 g ai/ha): 90; Ragweed plant response rating [17, 22]: 80; Plant response rating, Pigweed ([18]; 125 g ai/ha): 70; Ryegrass, Italian plant response rating [19, 22]: 50; Galium plant response rating [20, 22]: 100
